We go through 24 molecules from patent US20250320228A1, “PYRIDO[3,2-D]PYRIMIDINES AS HPK1 INHIBITORS” (Merck Patent GmbH, priority 2022, published 2025).

Counter-ions that a name gives are not always drawn.

As usually defined, the IC50 is the concentration at which inhibition is half-maximal.

Assay [1] deals with full-length human HPK1 (MAP4K1) (Homo sapiens (Human), UniProt Q92918). Nature of the assay: HPK1 kinase assay (biochemical, ADP-Glo). To be noted: GST-HPK1 3.2 nM, 10 μM ATP, MBP substrate, ADP-Glo; read-out: HPK1 enzymatic IC50. Put shortly:
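GST-tagged full-length human HPK1 from Sf21 baculovirus cells (3.2 nM in enzyme mix; 50 mM HEPES pH 7.5, 10 mM MgCl2) was preincubated 15 min at RT with compound. Reaction was started with Start-Mix (10 μM ATP, 3.235 μM MBP) and run 120 min. ADP was read by ADP-Glo luminescence; IC50 came from 10-point % inhibition.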
In general terms: In ADP-Glo the light output rises with the ADP produced.

Another assay deals with HPK1 pSLP76 (Ser376). Description: Cellular assay phospho-SLP-76 (Ser376). The assay is classed as cell-based, human. As to conditions: SLP76 Ser376 phosphorylation after αCD3/αCD28 stimulation; Jurkat (human) or EL-4 (mouse) cells, table does not say which; read-out: HPK1 pSLP76 IC50. As to the method:
Cellular Assay—Phospho-SLP-76 (Ser376).
Inhibition of HPK1 enzymatic activity in cells was determined by detection of SLP76 phosphorylation at Ser376 residue in lysate from Jurkat (human) and EL-4 (mouse) cells. Jurkat and EL-4 cells express both HPK1 and SLP76 naturally. All cells were cultured in RPMI 1640 media containing 10% heat inactivated fetal bovine serum (FBS) and 1× Penicillin-Streptomycin. In either Jurkat or El-4 assay, cells were pre-incubated with test compounds prior to T cell stimulation by respective αCD3/αCD28 Dynabeads™. For detection, plates were read on the Envision and percent inhibition and IC50 were determined by Smart fit in Genedata Analyzer.
For Jurkat cells: 35 μL cell suspension were dispensed at a density of 30,000 cells/well in 384-well plates containing HBSS (Gibco, 14025076)+0.1% BSA). 10-point logarithmic serial dilution of test compounds in DMSO were prepared by a Hamilton automated liquid handling robot and 35 nL was transferred into each well by an Echo liquid handler. After 60 min. pre-incubation, the cells were stimulated by adding 5 μL human T activator αCD3/αCD28 Dynabeads™ (Gibco, 11132D) at 1.2×107 beads/ml for 15 minutes at 37° C. Detection of Ser376 phosphorylation status was accomplished by first adding 10 μL of 5× AlphaLISA lysis buffer (Perkin Elmer, ALSU-PSLP-A500) to each well of the cell plate using a Multidrop Combi (5840300), followed by 20 minutes shaking. 10 μL cell lysate from each treatment were then transferred to a white 384-well plate (Corning 3572) and incubated with AlphaLISA acceptor beads for one hour (AlphaLISA SureFire Ultra p-SLP76 (Ser376), Perkin Elmer, ALSU-PSLP-A500), and donor beads for additional 2 hours at room temperature in the dark. […]

Chain of full-length human HPK1 (MAP4K1) (Q92918 whole entry): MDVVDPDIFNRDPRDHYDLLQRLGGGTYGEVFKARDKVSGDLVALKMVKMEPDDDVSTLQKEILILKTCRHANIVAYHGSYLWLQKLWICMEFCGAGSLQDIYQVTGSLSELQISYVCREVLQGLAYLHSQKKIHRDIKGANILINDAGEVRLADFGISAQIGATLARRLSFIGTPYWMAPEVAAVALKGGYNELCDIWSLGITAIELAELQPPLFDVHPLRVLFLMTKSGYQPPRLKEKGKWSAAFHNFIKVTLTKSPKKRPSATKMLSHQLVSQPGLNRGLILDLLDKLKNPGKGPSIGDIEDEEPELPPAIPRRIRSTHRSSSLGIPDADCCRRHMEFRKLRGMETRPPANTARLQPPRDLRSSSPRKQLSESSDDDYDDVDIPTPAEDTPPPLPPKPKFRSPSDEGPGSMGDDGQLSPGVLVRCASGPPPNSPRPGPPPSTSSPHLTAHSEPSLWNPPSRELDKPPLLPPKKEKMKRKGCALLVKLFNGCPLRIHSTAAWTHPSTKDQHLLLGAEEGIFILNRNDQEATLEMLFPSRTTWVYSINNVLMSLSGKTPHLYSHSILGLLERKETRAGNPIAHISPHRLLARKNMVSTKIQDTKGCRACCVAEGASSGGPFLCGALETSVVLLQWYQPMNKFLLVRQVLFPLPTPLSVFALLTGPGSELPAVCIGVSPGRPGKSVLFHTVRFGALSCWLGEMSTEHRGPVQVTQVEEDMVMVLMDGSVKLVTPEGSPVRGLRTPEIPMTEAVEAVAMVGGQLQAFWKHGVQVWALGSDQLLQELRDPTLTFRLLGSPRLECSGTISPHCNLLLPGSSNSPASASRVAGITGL

For `NC(=O)c1cc(-c2ccc(C3(N4CCOCC4)CC3)cc2)nc2c(N[C@H]3CCCNC3)ncnc12` [Example 28, 6-[4-[1-(morpholin-4-yl)cyclopropyl]phenyl]-4-[(3S)-piperidin-3-ylamino]pyrido [3,2-d]pyrimidine-8-carboxamide], the IC50 was less than 100 nM in assay [1] and less than 500 nM in the assay with HPK1 pSLP76 (Ser376).

In the case of `C[C@@H]1CN(Cc2ccc(-c3cc(C(N)=O)c4ncnc(N[C@H]5CCCNC5)c4n3)cc2)C[C@@H](C)O1` [Example 68, 6-(4-[[(2R,6R)-2,6-dimethylmorpholin-4-yl]methyl]phenyl)-4-[(3S)-piperidin-3-ylamino]pyrido[3,2-d]pyrimidine-8-carboxamide], the IC50 in assay [1] was less than 100 nM; in the assay on HPK1 pSLP76 (Ser376), 500 to 1000 nM.

Regarding `NC(=O)c1cc(-c2ccc(CN3CC4CC(C3)O4)cc2)nc2c(N[C@H]3CCCNC3)ncnc12` [Example 63, 6-(4-[6-oxa-3-azabicyclo [3.1.1]heptan-3-ylmethyl]phenyl)-4-[(3S)-piperidin-3-ylamino]pyrido[3,2-d]pyrimidine-8-carboxamide], the IC50 in assay [1] was less than 100 nM; in the assay on HPK1 pSLP76 (Ser376), less than 500 nM.

For `NC(=O)c1cc(-c2cnn(C3CC3)c2)nc2c(N[C@@H]3CNC[C@@H](F)C3)ncnc12` [Example 36, 6-(1-cyclopropyl-1H-pyrazol-4-yl)-4-(((3S,5S)-5-fluoropiperidin-3-yl)amino)pyrido[3,2-d]pyrimidine-8-carboxamide], the IC50 in assay [1] was less than 100 nM; in the assay on HPK1 pSLP76 (Ser376) it was 500 to 1000 nM.

In the case of `CC(C)(O)COc1ccc(-c2cc(C(N)=O)c3ncnc(N[C@@H]4CNC[C@@H](F)C4)c3n2)cc1` [Example 12, 4-(((3S,5S)-5-fluoropiperidin-3-yl)amino)-6-(4-(2-hydroxy-2-methylpropoxy)phenyl)pyrido[3,2-d]pyrimidine-8-carboxamide], the results for the 50% inhibitory concentration (IC50) (in assay [1]; in the assay on HPK1 pSLP76 (Ser376)) were less than 100 nM and less than 500 nM, respectively.

With `Cn1cc(-c2cc(C(N)=O)c3ncnc(N[C@@H]4CNC[C@@H](F)C4)c3n2)cc1C#N` [Example 7, 6-(5-cyano-1-methyl-1H-pyrrol-3-yl)-4-{[(3S,5S)-5-fluoropiperidin-3-yl]amino}pyrido[3,2-d]pyrimidine-8-carboxamide], the IC50 in assay [1] was less than 100 nM; in the assay with HPK1 pSLP76 (Ser376) it was less than 500 nM.

On to `CC(C)(O)COc1ccc(-c2cc(C(N)=O)c3ncnc(N[C@H]4CCCNC4)c3n2)cc1` [Example 62, 6-[4-(2-hydroxy-2-methylpropoxy)phenyl]-4-[(3S)-piperidin-3-ylamino]pyrido[3,2-d]pyrimidine-8-carboxamide], for which the IC50 is less than 100 nM in assay [1] and less than 500 nM in the assay on HPK1 pSLP76 (Ser376).

Turning to `CS(=O)(=O)Cc1ccc(-c2cc(C(N)=O)c3ncnc(N[C@H]4CCCNC4)c3n2)cc1` [Example 54, (S)-6-(4-((methylsulfonyl)methyl)phenyl)-4-(piperidin-3-ylamino)pyrido[3,2-d]pyrimidine-8-carboxamide], the half-inhibitory concentration (IC50) in assay [1] is less than 100 nM; in the assay on HPK1 pSLP76 (Ser376), more than 1000 nM.

On to `C[C@H]1CN(Cc2ccc(-c3cc(C(N)=O)c4ncnc(N[C@H]5CCCNC5)c4n3)cc2)CCO1` [Example 27, 6-(4-[[(2S)-2-methylmorpholin-4-yl]methyl]phenyl)-4-[(3S)-piperidin-3-ylamino]pyrido [3,2-d]pyrimidine-8 carboxamide dihydrochloride], for which the IC50 in assay [1] was less than 100 nM; in the assay on HPK1 pSLP76 (Ser376), less than 500 nM.

On to `COCCOc1ccc(-c2cc(C(N)=O)c3ncnc(N[C@H]4CCCNC4)c3n2)cc1` [Example 24, (S)-6-(4-(2-methoxyethoxy)phenyl)-4-(piperidin-3-ylamino) pyrido[3,2-d]pyrimidine-8-carboxamide], for which the IC50 in assay [1] was less than 100 nM; in the assay on HPK1 pSLP76 (Ser376) it was less than 500 nM.

As for `CC(=O)c1ccc(-c2cc(C(N)=O)c3ncnc(N[C@@H]4CNC[C@@H](F)C4)c3n2)s1` [Example 5, 6-(5-acetylthiophen-2-yl)-4-(((3S,5S)-5-fluoropiperidin-3-yl)amino)pyrido[3,2-d]pyrimidine-8-carboxamide], the IC50 in assay [1] is less than 100 nM; in the assay on HPK1 pSLP76 (Ser376), less than 500 nM.

For the molecule `N#Cc1ccccc1-c1cc(C(N)=O)c2ncnc(N[C@H]3CCCNC3)c2n1` [Example 86, 6-(2-cyanophenyl)-4-{[(3S)-piperidin-3-yl]amino}pyrido[3,2-d]pyrimidine-8-carboxamide], the half-maximal inhibitory concentration (IC50) in assay [1] was less than 100 nM; in the assay on HPK1 pSLP76 (Ser376), 500 to 1000 nM.

As for `CCn1ncc(-c2cc(C(N)=O)c3ncnc(N[C@@H]4CNC[C@@H](F)C4)c3n2)c1C` [Example 8, 6-(1-ethyl-5-methyl-1H-pyrazol-4-yl)-4-(((3S,5S)-5-fluoropiperidin-3-yl)amino)pyrido[3,2-d]pyrimidine-8-carboxamide], the 50% inhibitory concentration (IC50) is less than 100 nM in assay [1] and less than 500 nM with HPK1 pSLP76 (Ser376).

Turning to `CC(C)(O)COc1ccc(-c2cc(C(N)=O)c3ncnc(N[C@@H]4CNCC[C@@H]4F)c3n2)cc1` [Example 38, 4-(((3R,4S)-4-fluoropiperidin-3-yl)amino)-6-(4-(2-hydroxy-2-methylpropoxy)phenyl)pyrido[3,2-d]pyrimidine-8-carboxamide], the IC50 in assay [1] is less than 100 nM; in the assay on HPK1 pSLP76 (Ser376), less than 500 nM.

Consider `C[C@@H](c1ccc(-c2cc(C(N)=O)c3ncnc(N[C@H]4CCCNC4)c3n2)cc1)N1CCOCC1` (single isomer, unassigned) [Example 53], for which the IC50 is less than 100 nM in assay [1] and 500 to 1000 nM in the assay with HPK1 pSLP76 (Ser376).

`CC1(N2CCOCC2)CC=C(c2cc(C(N)=O)c3ncnc(N[C@H]4CCCNC4)c3n2)CC1` (stereo partly drawn) [Example 74, 6-[4-methyl-4-(morpholin-4-yl)cyclohex-1-en-1-yl]-4-{[(3S)-piperidin-3-yl]amino}pyrido[3,2-d]pyrimidine-8-carboxamide]: the IC50 is less than 100 nM in assay [1] and more than 1000 nM with HPK1 pSLP76 (Ser376).

Turning to `CN1CCN(c2ccc(-c3cc(C(N)=O)c4ncnc(N[C@H]5CCCNC5)c4n3)cn2)CC1` [Example 59, 6-[6-(4-methylpiperazin-1-yl)pyridin-3-yl]-4-[(3S)-piperidin-3-ylamino]pyrido[3,2-d]pyrimidine-8-carboxamide], the IC50 in assay [1] was less than 100 nM; in the assay on HPK1 pSLP76 (Ser376), less than 500 nM.

Turning to `CC(C)(O)COc1ccc(-c2cc(C(N)=O)c3ncnc(N[C@@H]4CNC[C@@H](F)C4)c3n2)c(C#N)c1` [Example 1, 6-(2-cyano-4-(2-hydroxy-2-methylpropoxy)phenyl)-4-(((3S,5S)-5-fluoropiperidin-3-yl)amino)pyrido[3,2-d]pyrimidine-8-carboxamide], the IC50 is less than 100 nM in assay [1] and less than 500 nM in the assay with HPK1 pSLP76 (Ser376).

Take `NC(=O)c1cc(-c2ccc(OCCCN3CCOCC3)cc2)nc2c(N[C@H]3CCCNC3)ncnc12` [Example 52, (S)-6-(4-(3-morpholinopropoxy)phenyl)-4-(piperidin-3-ylamino)pyrido[3,2-d]pyrimidine-8-carboxamide]: the values for the half-maximal inhibitory concentration (IC50) (in assay [1]; in the assay on HPK1 pSLP76 (Ser376)) were less than 100 nM and less than 500 nM, respectively.

For the molecule `C[C@@H]1COC[C@H](C)N1Cc1ccc(-c2cc(C(N)=O)c3ncnc(N[C@@H]4CNCCC4(F)F)c3n2)cc1` [Example 29, 4-[[(3R)-4,4-difluoropiperidin-3-yl]amino]-6-(4-[[(3R,5S)-3,5-dimethylmorpholin-4-yl]methyl]phenyl)pyrido[3,2-d]pyrimidine-8-carboxamide], the IC50 in assay [1] is less than 100 nM; in the assay on HPK1 pSLP76 (Ser376) it was more than 1000 nM.

In the case of `COCCOc1ccc(-c2cc(C(N)=O)c3ncnc(N[C@H]4CCCNC4)c3n2)cn1` [Example 55, (S)-6-(6-(2-methoxyethoxy)pyridin-3-yl)-4-(piperidin-3-ylamino)pyrido[3,2-d]pyrimidine-8-carboxamide], the IC50 in assay [1] was less than 100 nM; in the assay with HPK1 pSLP76 (Ser376), more than 1000 nM.

`COCCOc1ccc(-c2cc(C(N)=O)c3ncnc(N[C@H]4CNCC[C@@H]4F)c3n2)cc1` [Example 49, 4-(((3S,4S)-4-fluoropiperidin-3-yl)amino)-6-(4-(2-methoxyethoxy)phenyl)pyrido[3,2-d]pyrimidine-8-carboxamide]: the IC50 (in assay [1]; in the assay with HPK1 pSLP76 (Ser376)) was more than 1000 nM each time.

`NC(=O)c1cc(-c2ccc(OCC3(O)CC3)cc2)nc2c(N[C@@H]3CNCCC3(F)F)ncnc12` [Example 16, (R)-4-((4,4-difluoropiperidin-3-yl)amino)-6-(4-((1-hydroxycyclopropyl)methoxy)phenyl)pyrido[3,2-d]pyrimidine-8-carboxamide]: the figures for the IC50 (in assay [1]; in the assay on HPK1 pSLP76 (Ser376)) were less than 100 nM and less than 500 nM, respectively.

As for `Cn1cc(-c2cc(C(N)=O)c3ncnc(N[C@H]4CCCNC4)c3n2)cc1C#N` [Example 83, 6-(5-cyano-1-methyl-1H-pyrrol-3-yl)-4-{[(3S)-piperidin-3-yl]amino}pyrido[3,2-d]pyrimidine-8-carboxamide], the IC50 in assay [1] is less than 100 nM; with HPK1 pSLP76 (Ser376), less than 500 nM.
